{
  "source": "patent EP1293213A1",
  "about": "“PREVENTIVES/REMEDIES FOR POSTOPERATIVE STRESS” (Japan Tobacco Inc., priority 2000, dated 2001)",
  "key": {"[1]": {"target": "T1, CRF type I(CRF-I) receptor (Homo sapiens, UniProt P34998)", "T1 construct": "expressed in transfected cells; membrane fraction", "T1 sequence (P34998 24-415)": "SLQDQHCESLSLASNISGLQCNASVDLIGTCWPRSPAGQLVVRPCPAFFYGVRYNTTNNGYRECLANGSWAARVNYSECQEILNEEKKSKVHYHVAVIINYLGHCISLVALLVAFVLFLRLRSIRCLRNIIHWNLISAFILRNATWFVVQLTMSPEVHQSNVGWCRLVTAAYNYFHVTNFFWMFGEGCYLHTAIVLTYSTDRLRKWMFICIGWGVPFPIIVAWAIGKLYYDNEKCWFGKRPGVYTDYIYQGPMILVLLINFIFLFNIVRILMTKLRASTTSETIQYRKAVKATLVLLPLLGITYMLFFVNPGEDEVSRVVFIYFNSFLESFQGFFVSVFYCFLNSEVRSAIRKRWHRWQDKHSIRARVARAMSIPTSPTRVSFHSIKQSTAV", "test": "in vitro Binding Assay using membrane fraction of recombinant cell (6EF2B) expressing CRF receptor gene (SPA method)", "settings": "125I-Tyr0-human/rat CRF, membrane fraction of 6EF2B cells (derived from Hela cell), read-out: IC50(nM) [experiment 1]", "experimental": "Experiment 1 : in vitro Binding Assay using membrane fraction of recombinant cell (6EF2B) with expression of CRF receptor gene\nPreparation of membrane fraction:\nRecombinant cells 6EF2B (derived from Hela cell), which express CRF type I(CRF-I) receptor gene stably, were cultivated in Eagle's MEM medium(10%FCS, 400ug/ml G418.1/100 penicillin/streptomycin). After cultivation, cells were suspended in 50mM Tris-HCl (pH7.2) solution containing 1mM EDTA and incubated at 25°C for 15 to 30 minutes. After that, every step was carried out at 4°C. Treated cells were suspended in 50mM Tris-HCl(pH7.2) containing 10% sucrose and homogenized by a Polytron(PT10-35 model). This step of homogenization was carried out at 25,000 rpm for 15 to 20 seconds and repeated twice or three times. In the course of this step the homogenates were inspected under a microscope. Homogenates were centrifuged at 600 x g for 5 minutes and the supernatant was centrifuged again at 40,000 x g for 30 minutes. The obtained pellet was resuspended in 50mM Tris-HCl(10mM MgCl2, 2mM EGTA) and the suspension was centrifuged again at 40,000 x g for 30minutes. The obtained pellet was used for further experiments as membrane fraction. The membrane fraction was diluted with 50mM Tris-HCl(10mM MgCl2, 2mM EGTA, 0.1%BSA, 100 kallikrein units/ml aprotinin, 0.1mM bacitracin, pH7.2) to have the concentration of 1mg/ml and then stored at -80°C. DC protein assay kit (produced by Bio-RAD) was used to determine the protein concentration of the membrane fraction.\nBinding Assay using CRF-I receptor by means of SPA method:\nCompounds to be evaluated were stored at the concentration of 10mM in DMSO. […] The assay buffer consisted of 50mM Tris-HCl (pH7.7) containing 100mM NaCl, 5mM KCl, 2mM CaCl2, 0.1% BSA, 0.1% bacitracin, 0.05% FCS and 5% horse serum. The reactions were carried out in 96-well Optiplate(Packard) in which to 50ul of the test substance solution, were added 50ul of WGA-beads & membrane fraction (50 to 100ug membrane fraction/10mg beads/ml) pre-coupled by stirring (rotating with 10rpm) at room temperature for 2 hours on the day of experiment, and 100ul of 0.4nM ^125I-Tyr^0-human/rat CRF(NEX-216, Dupont NEN), to be made up 200ul as total volume, and the mixture was incubated at 25°C for 3 hours. By the way, the step of pre-coupling was carried out by using beads solution (20mg/ml) suspended in 50mM Tris-HCl buffer solution (pH7.2) and after stirring beads were washed twice with Tris-HCl buffer and once with assay buffer by centrifugation (3000 rpm, 5 minutes). In order to measure total binding and non-specific binding activity, assay buffer solution and 1uM(final conc.) cold human /rat CRF(C-3042; SIGMA) solution were used respectively in place of test substance solution. After incubation, the mixture was centrifuged at 23 °C, 2,500 rpm for 5 minutes and the scintillation was counted with Top Count (Packard). An influence of color quench was corrected by standard curve made by using tartrazine as a quencher. Evaluation of samples was carried out several times."}, "[2]": {"tested_on": "adrenocorticotropic hormone(ACTH)", "test": "Experiment 2: Model of surgical stress in mouse (inhibitory action of rise in releasing of ACTH)", "type": "in vivo", "settings": "ddY male mice, intravenous, surgical stress (abdominal incision, bowel draped externally)", "experimental": "Experiment 2: Model of surgical stress in mouse (Inhibitory action of rise in releasing of adrenocorticotropic hormone(ACTH))\n(§1) ddY male mice(SLC, 7 to 8 weeks of age: weight 34 to 42g)were used for experiments. Mice were housed before use under controlled lighting condition (12hours light and 12hours dark cycle(lights on from 8:00 to 20:00) at 23±3 °C and 55±15% humidity, and maintained with basal diet and water ad labium. On the experimental day, mice were moved to experimental room and habituated before experiment for more than 1 hour. On the day before experiment, mice were previously handled (by being fastened up for 10 to 15 seconds like the case of i.p. injections) to habituate to the stress caused by handling.\nMedicine and administration:\nTest compound to be evaluated was dissolved in and diluted with physiological saline(Otsuka), 5% mannitol or 0.1N NaHCO3/saline. Then the test sample solution was given into veins of mice at a dose of 10ml/Kg body weight. The same solvent alone mentioned above was given into veins of control mice group at a dose of 10ml/Kg weight.\nMice were anesthetized by injection of pentobarbital Na (2.5mg/mouse i.p.) and after 15 minutes the solvent alone or the solution containing test sample to be evaluated were intravenously injected on the tails of mice at a dose of 10ml/ Kg weight of mouse. After more 10 minutes a midline incision was made in the abdomen and in two minutes bowel was draped externally. Then 2.5 minutes after incision 0.6ml of blood samples were collected from main vein abdominalis for 1 minute gradually by using prechilled syringes(needle size 25G), which were wetted with 100mM EDTA solution. Control mice not subjected to surgical stress were decapitated and blood samples were collected at 13 to 14 minutes after medication of solvent alone and to them added 20ul of 100mM EDTA. Blood samples collected were put into siliconized tubes and centrifuged at 10,000rpm and 4°C for 5 minutes. The concentration of ACTH in supernatant was determined by IRMA method using Allegro ACTH kit (Nihon Medi+Physics Co.,Ltd.). […]"}, "[3]": {"tested_on": "corticosterone(CORT)", "test": "Experiment 3: Model of surgical stress in mouse (inhibitory action of rise in releasing of CORT)", "type": "in vivo", "settings": "ddY male mice, intravenous, blood 30 minutes after incision", "experimental": "Experiment 3: Model of surgical stress in mouse (Inhibitory action of rise in releasing of corticosterone(CORT))\nas §1, with “7” for “7 to 8”, “35” for “34”, “41g)were used.” for “42g)were used for experiments.”, “humidity 55±15%,” for “55±15% humidity,”, “day, after mice were weighted, diet was removed from mice just before experiments to eliminate the effects of food intake on experiments. Then,” for “day,”, “handling. Mice were divided into groups according to their weights on the experimental day.” for “handling.”\nMedicine applied and method of administration: […]\nMice were anesthetized by injections of pentobarbital Na (2.5mg/mouse i.p.) and after 20 minutes the solvent alone or the solution containing test sample to be evaluated were intravenously injected into the tail veins of mice at a dose of 10ml/Kg weight. […]\nThe concentration of CORT was determined by using Corticosterone Double Antibody (RIA measurement kit of CORT; ICN Pharmaceuticals, Inc.). […]"}},
  "data": [
    {"smiles": "CCc1cc(S(=O)(=O)N(CC)CC)cc(NC(=O)c2cc(Cl)c([O-])c(Cl)c2)c1OC.[K+]", "note": "[Example 7, potassium 2,6-dichloro-4-(N-(3-ethyl-5-diethylsulfamoyl-2-methoxyphenyl)carbamoyl)phenoxide]", "values": [
      {"measurement": "IC50", "setting": "[1]", "result": 263, "unit": "nM"},
      {"measurement": "Inhibitory action on ACTH release (mg/kg) [experiment 2]", "setting": "[2]", "result": "10 to 30", "unit": "mg/kg"},
      {"measurement": "Inhibitory action on CORT release (mg/kg) [experiment 3]", "setting": "[3]", "result": "10 to 30", "unit": "mg/kg"}
    ]}
  ]
}
